Seven molecules from paper PMC2677215 (Biochemical Journal, 2009) can be followed below.

Holding throughout (assay): radiometric citrulline NOS assay
What all share (format): biochemical

Test [1] addresses T1, Physarum NOS form B (clone B+; physnosb) (Badhamia polycephala, UniProt A6XKZ6).
Test [2] addresses T2, Physarum NOS form A (clone A1; physnosa) (Badhamia polycephala, UniProt A6XKZ4).
Test [3] has as its target T1, Physarum NOS form B (clone B+; physnosb). This is another data set of the same source.
Test [4] addresses T2, Physarum NOS form A (clone A1; physnosa). The source holds these as a separate data set.

As to `NC(=O)C1=CN([C@@H]2O[C@H](COP(=O)(O)OP(=O)(O)OC[C@H]3O[C@@H](n4cnc5c(N)ncnc54)[C@H](OP(=O)(O)O)[C@@H]3O)[C@@H](O)[C@H]2O)C=CC1` [NADPH], the results for the EC50 in test [1] and in test [2] were 60.3 ± 13.8 µM and 57.2 ± 6.5 µM, respectively.
With `N=C(NCCC[C@H](N)C(=O)O)N[N+](=O)[O-]` [L-NNA, N^ω-nitro-L-arginine], the IC50 in test [3] came to 39.8 ± 20.3 µM; in test [4], 25.7 ± 10.7 µM.
Consider `CC(=N)NCCCC[C@H](N)C(=O)O` [L-NIL, L-N6(1-iminoethyl)-lysine], for which the IC50 in test [3] came out at 76.7 ± 4.3 µM; in test [4], 81.3 ± 7.8 µM.
As for `C[C@H](O)[C@H](O)[C@H]1CNc2nc(N)[nH]c(=O)c2N1` [H4-bip, 6R-5,6,7,8-tetrahydro-L-biopterin], the EC50 in test [1] came to 0.7 ± 0.1 µM; in test [2], 7.9 ± 1.2 µM.
As for `Cc1cc2nc3c(=O)[nH]c(=O)nc-3n(C[C@H](O)[C@H](O)[C@H](O)COP(=O)(O)OP(=O)(O)OC[C@H]3O[C@@H](n4cnc5c(N)ncnc54)[C@H](O)[C@@H]3O)c2cc1C` [FAD], the concentration for a half-maximal effect (EC50) came to 2.1 ± 1.6 µM in test [1] and 3.9 ± 1.6 µM in test [2].
With `CNC(=N)NCCC[C@H](N)C(=O)O` [L-NMMA, N^ω-methyl-L-arginine], the half-inhibitory concentration (IC50) came to 44.3 ± 19.2 µM in test [3] and 45.2 ± 23.5 µM in test [4].
With `Cc1cc2nc3c(=O)[nH]c(=O)nc-3n(C[C@H](O)[C@H](O)[C@H](O)COP(=O)(O)O)c2cc1C` [FMN], the results for the EC50 in test [1] and in test [2] were 0.2 ± 0.2 µM and 1.7 ± 0.6 µM, respectively.

Broadly, the EC50 is the midpoint of the concentration-response curve. By IC50 is commonly meant the concentration that inhibits the measured activity by half.
